For one series, the target named is T1, wild-type human PTHR (Homo sapiens, UniProt Q03431).
T1 construct: expressed in transfected cells
T1 sequence (Q03431 27-593): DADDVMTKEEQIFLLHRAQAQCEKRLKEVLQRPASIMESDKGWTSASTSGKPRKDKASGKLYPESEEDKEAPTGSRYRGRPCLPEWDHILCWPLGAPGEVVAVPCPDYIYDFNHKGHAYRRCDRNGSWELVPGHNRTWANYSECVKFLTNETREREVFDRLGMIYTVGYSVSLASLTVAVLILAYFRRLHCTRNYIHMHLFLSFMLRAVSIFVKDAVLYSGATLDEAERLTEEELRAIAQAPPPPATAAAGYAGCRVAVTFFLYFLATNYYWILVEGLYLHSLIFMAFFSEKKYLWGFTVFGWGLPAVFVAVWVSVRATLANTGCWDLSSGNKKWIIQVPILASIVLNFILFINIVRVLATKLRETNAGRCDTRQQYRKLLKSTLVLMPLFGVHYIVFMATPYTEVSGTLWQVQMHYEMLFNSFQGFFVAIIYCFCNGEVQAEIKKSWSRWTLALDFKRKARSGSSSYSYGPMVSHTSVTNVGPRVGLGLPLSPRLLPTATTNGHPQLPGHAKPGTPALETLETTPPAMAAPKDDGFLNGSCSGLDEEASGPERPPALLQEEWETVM
Nature of the series: Competition binding in intact HKRK-B7 cells with 125I-PTH(1-34) tracer. Particulars: for reduction (alteration) of apparent binding affinity for the intact PTHR relative to parent peptide / detectable binding to the intact PTHR (in words) / enhancement in apparent PTHR-binding affinity relative to parent peptide: HKRK-B7 cells; for reduction (alteration) of apparent binding affinity for the intact PTHR relative to parent peptide: versus the respective parent peptide; for IC50: intact HKRK-B7 cells, read-out: PTHR-WT (HKRK-B7 cells) IC50; for enhancement in apparent PTHR-binding affinity relative to parent peptide: versus PTH(1-31)NH2. As for the experimental part: Cell Culture—Cells were cultured at 37° C. in a humidified atmosphere containing 5% CO2 in Dulbecco's modified Eagle's medium (DMEM), supplemented with 10% fetal bovine serum (HyClone, Logan Utah), 100 units/ml penicillin G, and 100 ug/ml streptomycin penicillin G/streptomycin (Invitrogen Corp. Carlsbad, Calif.). For binding and cAMP studies performed with the intact PTHR, the HKRK-B7 and ROS 17/2.8 cell lines were used. HKRK-B7 cells are derived from the porcine kidney cell line LLC-PK1 and express, via stable DNA transfection, the wild-type human PTHR at an approximate surface density of 950,000 PTH-binding sites per cell. ROS 17/2.8 cells are rat osteosarcoma cells and express the endogenous PTHR at an approximate surface density of 80,000 PTH-binding sites per cell. The cells were plated and assayed in 24-well plates.
Receptor binding—Binding to the wild-type human PTHR in intact HKRK-B7 cells and ROS 17/2.8 cells was assessed using ^125I-PTH(1-34) as a tracer radioligand, as described (Shimizu, M., (2001) Endocrinology 142:3068-3074). In brief, the cells in 24-well plates (about 500,000 cells per well) were incubated in binding buffer containing radioligand (about 100,000 cpm per well) with or without unlabeled peptide ligand (3×10^−9 to 1×10^−5 M) for four hours at 15° C. The binding mixture was then removed by aspiration, the cells were rinsed three times with binding buffer, lysed in 1 M NaOH, and the entire lysate was counted for gamma-irradiation in a gamma counter. Binding to PTHR-delNt in COS-7 cell membranes was assessed in 96-well, vacuum filtration plates (Multiscreen-Durapore HV, […] membranes, Millipore Corp., Millford, Mass.) using ^125I-[Aib^1,3,M]PTH(1-15)NH2 as a tracer radioligand, as described (Dean, T., (2006) Mol Endocrinol 20:931-942). In brief, cell membranes (20 μg/well) were incubated in membrane binding buffer containing radioligand (30,000 cpm/well) with or without unlabeled peptide ligand (3×10^−9 to 1×10^−5 M) for 90 minutes at 21° C. The plates were then subject to rapid vacuum filtration, the filters were washed once with buffer, detached from the plate and counted for gamma-irradiation in a gamma counter. Non-specific binding was defined as the binding observed in the presence of 1×10^−6 M PTH(1-31)NH2 for HKRK-B7 and ROS 17/2.8 cells, and 1×10^−6 M [Aib^1,3,M]PTH(1-15)NH2 for PTHR-delNt. Specifically bound radioactivity was calculated as a percentage of the radioactivity specifically bound in the absence of competing ligand.
Data and statistical calculations—Data were processed for curve fitting and derivation of IC50 and EC50 values using least-squares, nonlinear regression analysis and the four parameter logistic equation: […], where y, ymin and ymax are the observed, minimum and maximum response values, respectively; x is ligand concentration, and n is the slope factor. In cases where incomplete inhibition of binding occurred: i.e. with certain PTH(1-31) analogs binding to PTHR-delNt, the curve fits and IC50 values were derived by extrapolating the data to the maximum inhibition attained by [Aib^1,3,M]PTH(1-15)NH2. Paired data sets were statistically compared using a two-tailed Student's t-test, assuming unequal variances for the two sets.

Series [1] is described as follows: Circular dichroism spectroscopy, helical residues per peptide chain. Format: physicochemical. The note with it: calculated from [θ]222. In short, it runs like this: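 Helical residue count per peptide chain derived from 222 nm mean residue ellipticity via −[θ]222×30/28,000. Spectra taken at 20 °C as four-scan averages, with concentrations verified by absorbance at 280 nm (single tryptophan, 5700 M^−1).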

The mark [2] stands for this setting: hPTH(1-31)NH2 analogs, 125I-[Nle8,21,Tyr34]ratPTH(1-34)NH2 tracer.
Setting [3] is: [Ala1,Arg19]hPTH(1-31)NH2 analogs.
Setting [4] is: [Ala1,Arg19]hPTH(1-31)NH2 analogs, 125I-[Nle8,21,Tyr34]rPTH(1-34)NH2 tracer.

As a reminder, the IC50 is the concentration that gives 50% inhibition.

“Also recorded” adds a separate entry of the source. Like-named read-outs stand apart in the source and are kept apart here. Where a SMILES comes first, the peptide text is derived from it. Where no end group is shown, it is not given here. [ ]: non-standard residue; d: D form. Cha = N[C@@H](CC1CCCCC1)C(=O)O

In the case of “SVSEIQLMHNLGKHLNSMERAEWLRKKLQDV-NH2 [Val^21→Ala]”, the “reduction (alteration) of apparent binding affinity for the intact PTHR relative to parent peptide” value at wild-type human PTHR is recorded as “three- to four-fold”. Moreover, the CD helical residues in series [1] (hPTH(1-31)NH2 analogs) is 10.
For “SVSEIQLMHNLGKHLNSMERVEWLAKKLQDV-NH2 [Arg^25→Ala]”, the “reduction (alteration) of apparent binding affinity for the intact PTHR relative to parent peptide” value on wild-type human PTHR was “three- to four-fold”. Further, the CD helical residues in series [1] (hPTH(1-31)NH2 analogs) was 7.
Consider “SVSEIQLMHNLGKHLNSMEKVEWLRKKLQDV-NH2 [Arg^20→Lys]”, for which the “detectable binding to the intact PTHR (in words)” value (“detectable binding” below) at wild-type human PTHR is recorded as “complete loss of detectable binding affinity”. Further, the IC50 at wild-type human PTHR (setting [2]) was greater than 10000 nM. The CD helical residues in series [1] (hPTH(1-31)NH2 analogs) is recorded as 8.
“SVSEIQLMHNLGKHLNSMERVEWARKKLQDV-NH2 [Leu^24→Ala]”: on wild-type human PTHR, the “reduction (alteration) of apparent binding affinity for the intact PTHR relative to parent peptide” value is listed as 12 fold. Moreover, the CD helical residues in series [1] (hPTH(1-31)NH2 analogs) is 7.
For the compound “SVSEIQLMHNLGKHLNSMEEVEWLRKKLQDV [Arg^20→Glu]”, the “detectable binding” value at wild-type human PTHR was “abolished detectable binding; also recorded: complete loss of detectable binding affinity”. For the same compound, the CD helical residues in series [1] (setting [3]) was 8; in series [1] (hPTH(1-31)NH2 analogs) it was 7.
On to “SVSEIQLMHNLGKHLNSMEAVEWLRKKLQDV-NH2 [Arg^20→Ala]”, for which the “detectable binding” value at wild-type human PTHR is on record as “abolished detectable binding altogether; also recorded: abolished binding to the PTHR”. In addition, on wild-type human PTHR (setting [2]), the IC50 was greater than 10000 nM. The CD helical residues in series [1] (hPTH(1-31)NH2 analogs) is 10.
As to “SVSEIQLMHNLGKHLNSMERVAWLRKKLQDV-NH2 [Glu^22→Ala]”, the “enhancement in apparent PTHR-binding affinity relative to parent peptide” value at wild-type human PTHR is on record as “≦two-fold”. In addition, the CD helical residues in series [1] (hPTH(1-31)NH2 analogs) is listed as 9.
“SVSEIQLMHNLGKHLNSMERVEALRKKLQDV-NH2 [Trp^23→Ala]”: at wild-type human PTHR, the “reduction (alteration) of apparent binding affinity for the intact PTHR relative to parent peptide” value turned out to be 19 fold. The CD helical residues in series [1] (hPTH(1-31)NH2 analogs) was 7.
As to “AVSEIQLMHNLGKHLNSMRREEWLRKKLQDV-NH2 [Val^21→Glu]”, the “reduction (alteration) of apparent binding affinity for the intact PTHR relative to parent peptide” value on wild-type human PTHR was 12 fold. In series [1] (setting [3]), the CD helical residues is listed as 7.
On to “SVSEIQLMHNLGKHLNSMRRVEWLRKKLQDV-NH2 [Glu^19→Arg]”, for which, at wild-type human PTHR, the “enhancement in apparent PTHR-binding affinity relative to parent peptide” value is on record as “≦two-fold”. Also, the CD helical residues in series [1] (hPTH(1-31)NH2 analogs) was 8.
As for “AVSEIQLMHNLGKHLNSMRRVEWLREKLQDV-NH2 [Lys^26→Glu]”, the “reduction (alteration) of apparent binding affinity for the intact PTHR relative to parent peptide” value at wild-type human PTHR is recorded as “two- to five-fold reductions”. Also, the CD helical residues in series [1] (setting [3]) is given as 6.
“AVSEIQLMHNLGKHLNSMERVEWLRKKLQDV-NH2 [Arg^19→Glu]”: the “reduction (alteration) of apparent binding affinity for the intact PTHR relative to parent peptide” value at wild-type human PTHR was “two- to five-fold reductions”. The IC50 on wild-type human PTHR (setting [4]) was found to be 125 ± 29 nM. Further, the CD helical residues in series [1] (setting [3]) is 9.
Consider “SVSEIQLMHNLGKHLNSMERVEWLRKKLQDA-NH2 [Val^31→Ala]”, for which the “reduction (alteration) of apparent binding affinity for the intact PTHR relative to parent peptide” value on wild-type human PTHR was “three- to four-fold”. Moreover, the CD helical residues in series [1] (hPTH(1-31)NH2 analogs) is reported as 9.
As to `CC[C@H](C)[C@H](NC(=O)[C@H](CCC(=O)O)NC(=O)[C@H](CO)NC(=O)[C@@H](NC(=O)[C@H](C)N)C(C)C)C(=O)N[C@@H](CCC(N)=O)C(=O)N[C@@H](CC(C)C)C(=O)N[C@@H](CCSC)C(=O)N[C@@H](Cc1c[nH]cn1)C(=O)N[C@@H](CC(N)=O)C(=O)N[C@@H](CC(C)C)C(=O)NCC(=O)N[C@@H](CCCCN)C(=O)N[C@@H](Cc1c[nH]cn1)C(=O)N[C@@H](CC(C)C)C(=O)N[C@@H](CC(N)=O)C(=O)N[C@@H](CO)C(=O)N[C@@H](CCSC)C(=O)N[C@@H](CCCNC(=N)N)C(=O)N[C@@H](CCCNC(=N)N)C(=O)N[C@H](C(=O)N[C@@H](CCC(=O)O)C(=O)N[C@@H](Cc1c[nH]c2ccccc12)C(=O)N[C@@H](CC(C)C)C(=O)N[C@@H](CCCNC(=N)N)C(=O)N[C@@H](CCCCN)C(=O)N[C@@H](CCCCN)C(=O)N[C@@H](CC(C)C)C(=O)N[C@@H](CCC(N)=O)C(=O)N[C@@H](CC1CCCCC1)C(=O)N[C@H](C(N)=O)C(C)C)C(C)C` [Asp^30→Cha] (H-AVSEIQLMHNLGKHLNSMRRVEWLRKKLQ[Cha]V-NH2; N-terminus assumed), the half-inhibitory concentration (IC50) at wild-type human PTHR (setting [4]) turned out to be 54 ± 7 nM. In series [1] (setting [3]), the CD helical residues is listed as 8.

(Values after patent publication US8143374B2, “Polypeptide derivatives of parathyroid hormone (PTH)” (The General Hospital Corporation, priority 2006, dated 2012).)
